Consider one compound from ChEMBL document CHEMBL5723583, “Data for DCP probe BAY-9835” (2024).

pIC50: −log10 of the molar value.

The target of assay [1] is Alpha-2B adrenergic receptor (Homo sapiens) (UniProt P18089). The assay can be described thus: Inhibition of Adrenergic alpha2B at 10.0 µM in the Eurofins-Panlabs selectivity screen. To be noted: Compound concentration 10.0 uM.
For assay [2], the target named is Macrophage metalloelastase (Homo sapiens, UniProt P39900). The assay can be described thus: IC50 of hMMP12 at 1.0 µM in the Bayer in-house protease panel.
Sequence of Macrophage metalloelastase (P39900 whole entry): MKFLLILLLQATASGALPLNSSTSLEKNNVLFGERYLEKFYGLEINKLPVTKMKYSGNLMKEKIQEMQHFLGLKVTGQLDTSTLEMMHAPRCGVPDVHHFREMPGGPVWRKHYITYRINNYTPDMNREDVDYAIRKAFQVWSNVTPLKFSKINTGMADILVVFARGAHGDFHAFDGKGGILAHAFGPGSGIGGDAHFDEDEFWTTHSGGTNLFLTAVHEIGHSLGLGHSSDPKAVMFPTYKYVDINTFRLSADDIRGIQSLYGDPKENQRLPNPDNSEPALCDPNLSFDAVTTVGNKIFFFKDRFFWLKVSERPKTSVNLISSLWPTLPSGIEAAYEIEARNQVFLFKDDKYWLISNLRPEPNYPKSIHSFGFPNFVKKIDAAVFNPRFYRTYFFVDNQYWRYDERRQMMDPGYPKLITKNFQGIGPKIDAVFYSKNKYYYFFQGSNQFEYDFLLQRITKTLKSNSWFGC
The target in assay [3] is Matrix metalloproteinase-15 (Homo sapiens, UniProt P51511). The assay can be described thus: IC50 of hMMP15 at 1.0 µM in the Bayer in-house protease panel.
Assay [4] has as its target Cathepsin S (Homo sapiens, UniProt P25774). Description: IC50 of Cathepsin S at 1.0 µM in the Bayer in-house protease panel.
Assay [5] addresses Acetylcholinesterase (Homo sapiens) (UniProt P22303). Description: Inhibition of Cholinesterase, Acetyl, ACES at 10.0 µM in the Eurofins-Panlabs selectivity screen. To be noted: Compound concentration 10.0 uM.
The target of assay [6] is 3-hydroxy-3-methylglutaryl-coenzyme A reductase (Homo sapiens) (UniProt P04035). Description: Inhibition of HMG-CoA Reductase at 10.0 µM in the Eurofins-Panlabs selectivity screen. To be noted: Compound concentration 10.0 uM.
Sequence of 3-hydroxy-3-methylglutaryl-coenzyme A reductase (Homo sapiens) (P04035 whole entry): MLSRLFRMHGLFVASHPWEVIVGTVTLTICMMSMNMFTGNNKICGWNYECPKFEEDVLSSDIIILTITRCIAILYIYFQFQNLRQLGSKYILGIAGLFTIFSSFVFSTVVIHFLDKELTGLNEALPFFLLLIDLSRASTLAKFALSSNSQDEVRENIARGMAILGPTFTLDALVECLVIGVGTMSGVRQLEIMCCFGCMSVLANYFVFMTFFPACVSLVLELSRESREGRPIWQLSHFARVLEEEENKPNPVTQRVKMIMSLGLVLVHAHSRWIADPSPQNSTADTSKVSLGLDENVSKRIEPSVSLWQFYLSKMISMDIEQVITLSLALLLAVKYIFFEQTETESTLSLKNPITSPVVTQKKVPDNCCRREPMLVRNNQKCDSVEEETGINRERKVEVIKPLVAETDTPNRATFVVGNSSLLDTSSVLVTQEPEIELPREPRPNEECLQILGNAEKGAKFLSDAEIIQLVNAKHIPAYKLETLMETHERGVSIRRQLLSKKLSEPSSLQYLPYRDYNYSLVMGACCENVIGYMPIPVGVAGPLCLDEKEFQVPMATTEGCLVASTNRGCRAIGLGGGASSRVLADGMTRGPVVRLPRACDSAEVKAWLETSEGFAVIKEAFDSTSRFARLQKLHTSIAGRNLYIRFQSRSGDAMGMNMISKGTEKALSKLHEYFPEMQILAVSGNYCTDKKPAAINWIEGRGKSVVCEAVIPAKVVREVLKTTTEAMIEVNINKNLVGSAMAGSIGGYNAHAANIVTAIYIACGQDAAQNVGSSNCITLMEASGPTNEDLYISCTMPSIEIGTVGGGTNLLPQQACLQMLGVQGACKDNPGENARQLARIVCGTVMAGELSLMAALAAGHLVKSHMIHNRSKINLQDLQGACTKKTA
The target in assay [7] is Nitric oxide synthase 1 (Homo sapiens) (UniProt P29475). Description: Inhibition of Nitric Oxide Synthase, Neuronal (nNOS) at 10.0 µM in the Eurofins-Panlabs selectivity screen. To be noted: Rattus norvegicus; Compound concentration 10.0 uM.
Assay [8] deals with Adenosine receptor A1 (Homo sapiens) (UniProt P30542). Description: Inhibition of Adenosine A1 at 10.0 µM in the Eurofins-Panlabs selectivity screen. As to conditions: Compound concentration 10.0 uM.
Assay [9] addresses Adenosine receptor A3 (Homo sapiens) (UniProt P0DMS8). Description: Inhibition of Adenosine A3 at 10.0 µM in the Eurofins-Panlabs selectivity screen. To be noted: Compound concentration 10.0 uM.
For assay [10], the target named is Alpha-2C adrenergic receptor (Homo sapiens) (UniProt P18825). Description: Inhibition of Adrenergic alpha2C at 10.0 µM in the Eurofins-Panlabs selectivity screen. To be noted: Compound concentration 10.0 uM.
Sequence of Alpha-2C adrenergic receptor (Homo sapiens) (P18825 whole entry): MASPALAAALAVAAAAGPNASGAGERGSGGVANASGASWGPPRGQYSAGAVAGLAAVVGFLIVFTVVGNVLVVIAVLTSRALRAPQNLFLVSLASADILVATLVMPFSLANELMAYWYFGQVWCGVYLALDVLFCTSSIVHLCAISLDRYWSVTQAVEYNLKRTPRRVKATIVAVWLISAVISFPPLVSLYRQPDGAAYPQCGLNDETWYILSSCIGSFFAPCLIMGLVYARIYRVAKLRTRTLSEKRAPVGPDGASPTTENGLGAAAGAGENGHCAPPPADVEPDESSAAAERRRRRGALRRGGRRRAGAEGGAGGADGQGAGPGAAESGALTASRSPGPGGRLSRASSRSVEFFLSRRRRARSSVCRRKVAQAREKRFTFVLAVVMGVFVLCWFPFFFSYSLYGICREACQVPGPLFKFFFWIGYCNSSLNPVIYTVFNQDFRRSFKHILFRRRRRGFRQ
Assay [11] addresses Beta-1 adrenergic receptor (Homo sapiens) (UniProt P08588). The assay can be described thus: Inhibition of Adrenergic beta1 at 10.0 µM in the Eurofins-Panlabs selectivity screen. As to conditions: Compound concentration 10.0 uM.
The target in assay [12] is Beta-2 adrenergic receptor (Homo sapiens) (UniProt P07550). Description: Inhibition of Adrenergic beta2 at 10.0 µM in the Eurofins-Panlabs selectivity screen. As to conditions: Compound concentration 10.0 uM.
Assay [13] has as its target Sodium-dependent noradrenaline transporter (Homo sapiens) (UniProt P23975). The assay can be described thus: Inhibition of Transporter, Norepinephrine (NET) at 10.0 µM in the Eurofins-Panlabs selectivity screen. To be noted: Compound concentration 10.0 uM.
Assay [14] has as its target Type-1 angiotensin II receptor (Homo sapiens) (UniProt P30556). The assay can be described thus: Inhibition of Angiotensin AT1 at 10.0 µM in the Eurofins-Panlabs selectivity screen. To be noted: Compound concentration 10.0 uM.
Assay [15] addresses Type-2 angiotensin II receptor (Homo sapiens) (UniProt P50052). Description: Inhibition of Angiotensin AT2 at 10.0 µM in the Eurofins-Panlabs selectivity screen. As to conditions: Compound concentration 10.0 uM.
Assay [16] concerns the target D(2) dopamine receptor (Homo sapiens) (UniProt P14416). Description: Inhibition of Dopamine D2L at 10.0 µM in the Eurofins-Panlabs selectivity screen. As to conditions: Compound concentration 10.0 uM.
Assay [17] concerns the target Growth hormone secretagogue receptor type 1 (Homo sapiens) (UniProt Q92847). Description: Inhibition of Growth Hormone Secretagogue (GHS, Ghrelin) at 10.0 µM in the Eurofins-Panlabs selectivity screen. As to conditions: Compound concentration 10.0 uM.
The target of assay [18] is Histamine H2 receptor (Homo sapiens) (UniProt P25021). The assay can be described thus: Inhibition of Histamine H2 at 10.0 µM in the Eurofins-Panlabs selectivity screen. To be noted: Compound concentration 10.0 uM.
Sequence of Histamine H2 receptor (Homo sapiens) (P25021 whole entry): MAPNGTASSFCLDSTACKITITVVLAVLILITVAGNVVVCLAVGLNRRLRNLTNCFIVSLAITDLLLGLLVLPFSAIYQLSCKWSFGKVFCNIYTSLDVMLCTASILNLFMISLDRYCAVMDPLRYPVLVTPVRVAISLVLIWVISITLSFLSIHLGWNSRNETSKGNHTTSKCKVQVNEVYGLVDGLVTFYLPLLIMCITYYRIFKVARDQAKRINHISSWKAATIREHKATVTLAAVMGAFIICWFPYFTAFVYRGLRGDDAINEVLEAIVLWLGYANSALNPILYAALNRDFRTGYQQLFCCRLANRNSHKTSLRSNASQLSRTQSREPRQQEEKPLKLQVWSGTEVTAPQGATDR
The target of assay [19] is Motilin receptor (Homo sapiens) (UniProt O43193). The assay can be described thus: Inhibition of Motilin at 10.0 µM in the Eurofins-Panlabs selectivity screen. To be noted: Compound concentration 10.0 uM.
For assay [20], the target named is Muscarinic acetylcholine receptor M3 (Homo sapiens) (UniProt P20309). Description: Inhibition of Muscarinic M3 at 10.0 µM in the Eurofins-Panlabs selectivity screen. As to conditions: Compound concentration 10.0 uM.
Sequence of Muscarinic acetylcholine receptor M3 (Homo sapiens) (P20309 whole entry, looked up): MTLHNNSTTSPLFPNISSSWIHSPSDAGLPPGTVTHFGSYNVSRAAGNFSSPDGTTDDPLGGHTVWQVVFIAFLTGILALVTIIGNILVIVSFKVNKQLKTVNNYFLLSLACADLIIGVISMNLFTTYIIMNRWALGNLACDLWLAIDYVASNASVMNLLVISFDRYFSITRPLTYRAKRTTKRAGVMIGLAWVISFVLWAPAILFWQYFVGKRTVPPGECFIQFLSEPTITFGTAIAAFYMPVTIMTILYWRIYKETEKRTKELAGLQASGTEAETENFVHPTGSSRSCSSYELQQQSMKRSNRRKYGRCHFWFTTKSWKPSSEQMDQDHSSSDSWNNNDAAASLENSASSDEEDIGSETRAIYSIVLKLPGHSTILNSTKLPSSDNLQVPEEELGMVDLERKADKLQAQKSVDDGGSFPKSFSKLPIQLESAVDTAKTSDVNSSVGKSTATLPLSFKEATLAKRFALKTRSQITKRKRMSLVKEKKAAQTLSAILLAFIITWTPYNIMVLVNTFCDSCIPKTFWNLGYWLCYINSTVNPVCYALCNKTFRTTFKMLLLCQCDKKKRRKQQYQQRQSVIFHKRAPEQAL
Assay [21] deals with 5-hydroxytryptamine receptor 2A (Homo sapiens) (UniProt P28223). Description: Inhibition of Serotonin (5-Hydroxytryptamine) 5-HT2A at 10.0 µM in the Eurofins-Panlabs selectivity screen. To be noted: Compound concentration 10.0 uM.
In assay [22] the target is Sodium-dependent serotonin transporter (Homo sapiens) (UniProt P31645). Description: Inhibition of Transporter, Serotonin (5-Hydroxytryptamine) (SERT) at 10.0 µM in the Eurofins-Panlabs selectivity screen. To be noted: Compound concentration 10.0 uM.

Sequence of Beta-1 adrenergic receptor (Homo sapiens) (P08588 whole entry, looked up): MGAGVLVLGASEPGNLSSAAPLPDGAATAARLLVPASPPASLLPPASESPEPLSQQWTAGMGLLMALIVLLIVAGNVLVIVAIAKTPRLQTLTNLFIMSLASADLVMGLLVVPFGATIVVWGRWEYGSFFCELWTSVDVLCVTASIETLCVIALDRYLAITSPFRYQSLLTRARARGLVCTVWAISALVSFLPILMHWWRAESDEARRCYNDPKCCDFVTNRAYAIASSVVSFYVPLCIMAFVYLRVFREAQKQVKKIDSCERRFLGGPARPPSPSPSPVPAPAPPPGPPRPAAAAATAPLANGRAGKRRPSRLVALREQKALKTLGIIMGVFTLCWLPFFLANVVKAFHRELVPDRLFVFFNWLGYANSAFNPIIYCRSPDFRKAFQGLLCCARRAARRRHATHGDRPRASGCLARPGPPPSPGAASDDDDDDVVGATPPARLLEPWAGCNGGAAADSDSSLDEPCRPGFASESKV
Sequence of Cathepsin S (P25774 whole entry): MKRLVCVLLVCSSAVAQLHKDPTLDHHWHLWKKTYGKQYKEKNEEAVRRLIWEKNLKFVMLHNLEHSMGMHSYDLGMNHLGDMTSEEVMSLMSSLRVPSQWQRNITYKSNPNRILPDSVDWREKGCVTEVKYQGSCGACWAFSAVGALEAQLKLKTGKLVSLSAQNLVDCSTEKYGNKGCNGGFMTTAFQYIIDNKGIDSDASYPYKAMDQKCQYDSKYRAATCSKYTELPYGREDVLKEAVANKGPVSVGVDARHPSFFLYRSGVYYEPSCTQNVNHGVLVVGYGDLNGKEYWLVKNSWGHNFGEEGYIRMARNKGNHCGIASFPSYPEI
Sequence of Sodium-dependent noradrenaline transporter (Homo sapiens) (P23975 whole entry): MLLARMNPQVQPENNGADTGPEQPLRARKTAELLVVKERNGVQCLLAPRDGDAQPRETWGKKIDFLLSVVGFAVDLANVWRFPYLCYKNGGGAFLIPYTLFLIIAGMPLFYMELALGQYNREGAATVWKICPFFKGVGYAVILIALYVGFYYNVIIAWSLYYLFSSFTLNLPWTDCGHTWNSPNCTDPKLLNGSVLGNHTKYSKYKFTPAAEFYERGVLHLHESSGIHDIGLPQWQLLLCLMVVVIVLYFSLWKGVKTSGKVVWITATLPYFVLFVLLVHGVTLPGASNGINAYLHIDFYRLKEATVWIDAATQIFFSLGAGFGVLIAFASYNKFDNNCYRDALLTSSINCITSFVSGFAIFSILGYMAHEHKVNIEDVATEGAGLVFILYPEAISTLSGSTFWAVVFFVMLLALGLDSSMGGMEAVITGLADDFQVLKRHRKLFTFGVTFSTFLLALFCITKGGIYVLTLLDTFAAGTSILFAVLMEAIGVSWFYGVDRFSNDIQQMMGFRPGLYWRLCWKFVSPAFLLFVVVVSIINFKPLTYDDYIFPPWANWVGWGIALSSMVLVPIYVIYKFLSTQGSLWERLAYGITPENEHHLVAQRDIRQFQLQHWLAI
Sequence of Type-2 angiotensin II receptor (Homo sapiens) (P50052 whole entry): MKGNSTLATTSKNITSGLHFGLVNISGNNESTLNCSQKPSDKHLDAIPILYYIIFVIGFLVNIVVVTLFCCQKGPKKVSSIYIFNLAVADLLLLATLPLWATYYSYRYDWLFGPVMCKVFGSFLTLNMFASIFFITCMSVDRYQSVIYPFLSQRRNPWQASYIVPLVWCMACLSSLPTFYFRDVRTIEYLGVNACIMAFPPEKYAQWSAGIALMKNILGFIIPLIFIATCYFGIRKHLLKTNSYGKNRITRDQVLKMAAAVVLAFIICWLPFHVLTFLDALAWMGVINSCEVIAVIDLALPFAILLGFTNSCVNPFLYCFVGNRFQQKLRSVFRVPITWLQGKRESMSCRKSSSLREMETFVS
Sequence of Adenosine receptor A3 (Homo sapiens) (P0DMS8 whole entry): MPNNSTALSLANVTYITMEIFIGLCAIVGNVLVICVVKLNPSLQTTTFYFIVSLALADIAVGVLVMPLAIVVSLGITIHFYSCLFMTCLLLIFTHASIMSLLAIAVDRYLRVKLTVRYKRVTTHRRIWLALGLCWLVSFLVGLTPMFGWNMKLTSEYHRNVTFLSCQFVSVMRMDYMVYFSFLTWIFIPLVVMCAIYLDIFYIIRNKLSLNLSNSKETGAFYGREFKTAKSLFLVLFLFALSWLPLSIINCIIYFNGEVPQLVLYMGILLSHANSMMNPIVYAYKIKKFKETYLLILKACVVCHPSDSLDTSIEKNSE

Broadly, the inhibition is the relative decrease from the control value, in per cent. Broadly, the pIC50 is the IC50 on a negative log10 scale, so that one unit is a factor of ten. Lower therefore signals a high IC50. In the case of `Cn1nccc1[C@]1(CNC(=O)c2ccc(F)c(F)c2-c2ccc(C(F)(F)F)cc2)NC(=O)NC1=O`, the inhibition was -3% in assay [1]; 3% in assay [5]; -5% in assay [6]; 0% in assay [7]; -4% in assay [8]; 0% in assay [9]. In addition, the inhibition was -1% in [10]; -8% in assay [11]; -9% in assay [12]; 6% in assay [13]; -1% in [14]; 0% in [15]. For the same compound, the inhibition is 2% in assay [16]; 6% in assay [17]; 16% in assay [18]; 3% in assay [19]; 9% in assay [20]; -7% in [21]. In addition, in assay [22], the inhibition stood at 10%. Moreover, the pIC50 was 5.27 in assay [2], 4.11 in assay [3] and below 4.00 in assay [4].
